Measured values published in ChEMBL document CHEMBL3817819, “Development and application of ligand-based NMR screening assays for -butyrobetaine hydroxylase” (Medchemcomm, 2016).
Active and inactive are the calls of the source. The calls are words filed in the database; no cut-off is given here.

How the values were obtained:
[1] = molecular target: T1, Gamma-butyrobetaine dioxygenase (Pseudomonas sp. (strain AK-1), UniProt P80193); experiment: Inhibition of Pseudomonas sp. AK1 BBOX using GBBF as substrate after 10 mins in presence of 2OG and Fe2+ using TBS-protected fluorescein probe by fluoride release assay
T1 sequence (P80193 whole entry): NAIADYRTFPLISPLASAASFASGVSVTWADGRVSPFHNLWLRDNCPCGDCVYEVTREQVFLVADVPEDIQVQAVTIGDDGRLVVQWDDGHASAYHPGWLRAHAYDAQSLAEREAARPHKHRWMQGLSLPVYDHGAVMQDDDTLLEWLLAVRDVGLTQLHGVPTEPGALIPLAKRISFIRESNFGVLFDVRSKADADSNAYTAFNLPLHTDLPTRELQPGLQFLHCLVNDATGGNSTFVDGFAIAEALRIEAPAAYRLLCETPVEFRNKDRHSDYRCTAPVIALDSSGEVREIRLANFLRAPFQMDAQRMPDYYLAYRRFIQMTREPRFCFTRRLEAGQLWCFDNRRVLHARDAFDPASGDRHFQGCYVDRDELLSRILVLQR

[2] = molecular target: T1, Gamma-butyrobetaine dioxygenase; experiment: Binding affinity to Pseudomonas sp. AK1 BBOX by intrinsic tryptophan fluorescence quenching assay
[3] = molecular target: T1, Gamma-butyrobetaine dioxygenase; experiment: Inhibition of Pseudomonas sp. AK1 BBOX assessed as hydroxylation of GBB to L-carnitine measured for 60 sec in presence of 2OG and Fe2+ by 1H NMR assay
[4] = molecular target: T2, Gamma-butyrobetaine dioxygenase (Pseudomonas sp. (strain AK-1)) (UniProt P80193); experiment: Inhibition of GBB binding to Pseudomonas sp. AK1 BBOX at 25 uM in presence of Mn2+ by 1H NMR GBB/2OG dual reporter displacement assay
T2 sequence (whole entry): T1 sequence (P80193 whole entry)

[5] = molecular target: T2, Gamma-butyrobetaine dioxygenase (Pseudomonas sp. (strain AK-1)); experiment: Inhibition of 2OG binding to Pseudomonas sp. AK1 BBOX at 25 uM in presence of Mn2+ by 1H NMR GBB/2OG dual reporter displacement assay
[6] = molecular target: T2, Gamma-butyrobetaine dioxygenase (Pseudomonas sp. (strain AK-1)); experiment: Induction of GBB binding to Pseudomonas sp. AK1 BBOX at 25 uM in presence of Mn2+ by 1H NMR GBB/2OG dual reporter displacement assay
[7] = molecular target: T3, Gamma-butyrobetaine dioxygenase (Homo sapiens, UniProt O75936); experiment: Inhibition of human BBOX using GBBF as substrate in presence of 2OG and Fe2+ using TBS-protected fluorescein probe by fluoride release assay
T3 sequence (O75936 whole entry): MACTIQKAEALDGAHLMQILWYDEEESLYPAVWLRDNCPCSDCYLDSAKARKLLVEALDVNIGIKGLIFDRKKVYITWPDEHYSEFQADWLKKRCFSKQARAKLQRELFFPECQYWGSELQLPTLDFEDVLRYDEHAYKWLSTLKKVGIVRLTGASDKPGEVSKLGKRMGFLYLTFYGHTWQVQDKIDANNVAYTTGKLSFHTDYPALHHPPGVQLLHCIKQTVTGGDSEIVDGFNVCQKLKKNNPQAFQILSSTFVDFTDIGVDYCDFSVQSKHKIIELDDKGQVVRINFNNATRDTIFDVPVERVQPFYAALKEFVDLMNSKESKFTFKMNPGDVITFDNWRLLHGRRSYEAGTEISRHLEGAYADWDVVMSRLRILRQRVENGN

SMILES	IC50 [1]	Kd [2]	IC50 [3]	inhibition [4]	inhibition [5]	Activity [6]	IC50 [7]
O=C(N[C@H](Cc1ccccc1)C(=O)O)c1nc(Cl)c2ccccc2c1O	101 µM	82 µM	38 µM	–	–	–	–
O=C(O)C[C@H](NC(=O)c1nc(Cl)c2ccccc2c1O)C(=O)O	245 µM	91 µM	76 µM	inactive	Active	–	–
O=C(O)CNC(=O)c1nc(Cl)c2ccccc2c1O	1.2 µM	22 µM	0.21 µM	inactive	Active	Active	–
O=C(N[C@@H](Cc1ccccc1)C(=O)O)c1nc(Cl)c2ccccc2c1O	13 µM	26 µM	1 µM	Active	Active	–	–
O=C(O)C[C@@H](NC(=O)c1nc(Cl)c2ccccc2c1O)C(=O)O	160 µM	101 µM	38 µM	–	–	–	–
O=C(O)CC[C@@H](NC(=O)c1nc(Cl)c2ccccc2c1O)C(=O)O	> 1000 µM	89 µM	86 µM	inactive	inactive	–	–
CC(C)C[C@H](NC(=O)c1nc(Cl)c2ccccc2c1O)C(=O)O	125 µM	55 µM	26 µM	Active	Active	–	–
CC(C)C[C@@H](NC(=O)c1nc(Cl)c2ccccc2c1O)C(=O)O	> 1000 µM	103 µM	94 µM	inactive	inactive	–	–
CC(C)[C@H](NC(=O)c1nc(Cl)c2ccccc2c1O)C(=O)O	130 µM	55 µM	23 µM	Active	Active	–	–
O=C(N[C@@H](Cc1c[nH]c2ccccc12)C(=O)O)c1nc(Cl)c2ccccc2c1O	26 µM	29 µM	0.9 µM	Active	Active	–	11 µM
CC(C)[C@@H](NC(=O)c1nc(Cl)c2ccccc2c1O)C(=O)O	> 1000 µM	144 µM	191 µM	inactive	inactive	–	–
O=C(N[C@H](Cc1c[nH]c2ccccc12)C(=O)O)c1nc(Cl)c2ccccc2c1O	> 1000 µM	168 µM	18 µM	–	–	–	33 µM
O=C(O)CC[C@H](NC(=O)c1nc(Cl)c2ccccc2c1O)C(=O)O	147 µM	64 µM	22 µM	–	–	–	–
